Measurements published in US20040235834A1, “Thiazoles useful as inhibitors of protein kinases” (priority 2003, published 2004).

Tests used:
ZAP-70 = biological target: T1, ZAP-70 (Homo sapiens, UniProt P43403); test: ZAP-70 inhibition assay (standard coupled enzyme assay); assay type: biochemical; conditions: 100 μM ATP, 20 μM poly-4EY peptide, 30° C., 60 nM ZAP-70
T1 sequence (P43403 1-619): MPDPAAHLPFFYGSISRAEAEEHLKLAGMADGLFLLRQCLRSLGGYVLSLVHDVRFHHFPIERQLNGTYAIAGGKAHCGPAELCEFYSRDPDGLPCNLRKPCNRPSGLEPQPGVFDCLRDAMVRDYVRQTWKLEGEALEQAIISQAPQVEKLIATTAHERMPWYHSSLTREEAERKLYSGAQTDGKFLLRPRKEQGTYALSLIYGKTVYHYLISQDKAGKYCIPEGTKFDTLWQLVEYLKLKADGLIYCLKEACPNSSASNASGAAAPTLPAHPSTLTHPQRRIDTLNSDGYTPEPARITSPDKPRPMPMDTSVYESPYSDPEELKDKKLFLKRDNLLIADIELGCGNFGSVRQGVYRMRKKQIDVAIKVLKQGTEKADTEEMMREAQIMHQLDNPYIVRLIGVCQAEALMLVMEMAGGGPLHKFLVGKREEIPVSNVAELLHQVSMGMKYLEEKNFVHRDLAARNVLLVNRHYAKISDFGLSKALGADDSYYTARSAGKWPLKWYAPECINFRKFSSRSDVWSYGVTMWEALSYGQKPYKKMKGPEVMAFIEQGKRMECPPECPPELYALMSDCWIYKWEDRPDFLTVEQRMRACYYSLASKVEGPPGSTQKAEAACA
Description: Compounds were screened for their ability to inhibit ZAP-70 using a standard coupled enzyme assay (Fox et al., Protein Sci. 1998, 7, 2249). Assays were carried out in a mixture of 100 mM HEPES (pH 7.5), 10 mM MgCl2, 25 mM NaCl, 2 mM DTT and 3% DMSO. Final substrate concentrations in the assay were 100 μM ATP (Sigma Chemicals) and 20 μM peptide (poly-4EY, Sigma Chemicals). Assays were carried out at 30° C. and 60 nM ZAP-70. Final concentrations of the components of the coupled enzyme system were 2.5 mM phosphoenolpyruvate, 300 μM NADH, 30 μg/ml pyruvate kinase and 10 μg/ml lactate dehydrogenase.
An assay stock buffer solution was prepared containing all of the reagents listed above, with the exception of ZAP-70 and the test compound of interest of the present invention. 55 μl of the stock solution was placed in a 96 well plate followed by addition of 2 μl of DMSO stock containing serial dilutions of the test compound of the present invention (typically starting from a final concentration of 15 μM). The plate was preincubated for 10 minutes at 30° C. and the reaction initiated by addition of 10 μl of enzyme (final concentration 60 nM). Initial reaction rates were determined with a Molecular Devices SpectraMax Plus plate reader over a 15 minute time course. Ki data was calculated from non-linear regression analysis using the Prism software package (GraphPad Prism version 3.Oa for Macintosh, GraphPad Software, San Diego Calif., USA).

SYK = SYK (Homo sapiens, UniProt P43405); test: SYK inhibition assay (standard coupled enzyme assay); assay type: biochemical; conditions: 200 μM ATP, 4 μM poly Gly-Tyr peptide, 30° C.
Description: Compounds were screened for their ability to inhibit SYK using a standard coupled enzyme assay (Fox et al., Protein Sci. 1998, 7, 2249). Reactions were carried out in 100 mM HEPES (pH 7.5), 10 mM MgCl2, 25 mM NaCl, 1 mM DTT and 1.5% DMSO. Final substrate concentrations in the assay were 200 μM ATP (Sigma chemical Co.) and 4 μM poly Gly—Tyr peptide (Sigma Chemical Co.). Assays were carried out at 30° C. and 200 nM SYK. Final concentrations of the components of the coupled enzyme system were 2.5 mM phosphoenolpyruvate, 300 μM NADH, 30 μg/ml pyruvate kinase and 10 μg/ml lactate dehydrogenase.
An assay stock buffer solution was prepared containing all of the reagents listed above, with the exception of SYK, DTT, and the test compound of interest of the present invention. 56 μl of the test reaction was placed in a 96 well plate followed by the addition of 1 μl of 2 mM DMSO stock containing the test compound of the present invnetion (final compound concentration 30 μM). The plate was pre-incubated for ˜10 minutes at 30° C. and the reaction initiated by the addition of 10 μl of enzyme (final concentration 25 nM).

SMILES | Ki (ZAP-70) | Ki (SYK)
Cc1cc(C)cc(Nc2nccc(-c3cscn3)n2)c1 [Compound I-1] | ≤ 5 µM | ≤ 5 µM
Cc1cc(C)cc(Nc2nccc(-c3csc(CO)n3)n2)c1 [Compound I-4] | ≤ 5 µM | ≤ 5 µM
COc1cc(Nc2nccc(-c3cscn3)n2)cc(C(F)(F)F)c1 [Compound I-2] | ≤ 5 µM | ≤ 5 µM
CC(=O)c1nc(-c2ccnc(Nc3cc(C)cc(C)c3)n2)cs1 [Compound I-3] | ≤ 5 µM | ≤ 5 µM
Oc1cc(Nc2nccc(-c3cscn3)n2)cc(C(F)(F)F)c1 [Compound I-6] | ≤ 5 µM | ≤ 5 µM
Cc1cc(Nc2nccc(-c3cscn3)n2)cc(C(F)(F)F)c1 [Compound I-5] | ≤ 5 µM | ≤ 5 µM
